Measured values: publication PMC9097471, “Development of Selective Phosphatidylinositol 5-Phosphate 4-Kinase γ Inhibitors with a Non-ATP-competitive, Allosteric Binding Mode” (Journal of Medicinal Chemistry, 2022)
“And” between values parts separate entries of the source, which are not always exact repeats. Equal entries are not always repeated.

Key:
[1] = molecular target: T1, PI5P4Kγ-WT (Homo sapiens, UniProt Q8TBX8); assay: Thermal shift assay; details: read-out: ΔTm PI5P4Kγ WT, thermal shift, compound 63 μM
T1 sequence (Q8TBX8 1-421): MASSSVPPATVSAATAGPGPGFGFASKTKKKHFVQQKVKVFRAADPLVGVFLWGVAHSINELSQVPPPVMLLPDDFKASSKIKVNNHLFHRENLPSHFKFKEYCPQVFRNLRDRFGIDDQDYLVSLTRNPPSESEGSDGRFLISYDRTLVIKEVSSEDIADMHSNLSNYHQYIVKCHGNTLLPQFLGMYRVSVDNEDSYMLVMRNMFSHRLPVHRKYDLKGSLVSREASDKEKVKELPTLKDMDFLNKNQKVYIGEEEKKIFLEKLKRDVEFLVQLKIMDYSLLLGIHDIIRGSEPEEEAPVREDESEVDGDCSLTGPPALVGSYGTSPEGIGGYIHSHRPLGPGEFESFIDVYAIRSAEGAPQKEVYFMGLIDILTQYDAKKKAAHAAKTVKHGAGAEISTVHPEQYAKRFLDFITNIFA

[2] = molecular target: T2, PI5P4Kα-WT (Homo sapiens, UniProt P48426); assay: ADP-Glo inhibition assay; details: ADP-Glo
T2 sequence (P48426 1-406): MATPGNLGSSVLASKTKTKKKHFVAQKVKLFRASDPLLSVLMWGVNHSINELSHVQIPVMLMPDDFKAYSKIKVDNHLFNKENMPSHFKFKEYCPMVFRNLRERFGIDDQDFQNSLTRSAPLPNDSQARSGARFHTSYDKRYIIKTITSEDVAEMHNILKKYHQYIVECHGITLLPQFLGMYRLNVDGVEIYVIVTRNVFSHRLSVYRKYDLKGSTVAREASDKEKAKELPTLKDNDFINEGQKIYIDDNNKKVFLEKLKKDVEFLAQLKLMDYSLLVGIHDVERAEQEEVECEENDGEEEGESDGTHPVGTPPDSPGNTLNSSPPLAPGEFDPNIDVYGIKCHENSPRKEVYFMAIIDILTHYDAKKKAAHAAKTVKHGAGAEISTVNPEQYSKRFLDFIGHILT
Text: (§1) To enable direct comparisons, Promega’s ADP-Glo reporter assay was developed using a mutant form of the kinase. […] To mitigate concerns about being misled by the use of the PI5P4Kγ+ construct and the possible introduction of PI5P4Kα activity into the molecules, our screening cascade included the measurement of ADP-Glo activity at PI5P4Kα-WT (and PI5P4Kβ-WT to fully understand emerging selectivity profiles).

[3] = molecular target: T3, PI5P4Kγ+ (Homo sapiens, UniProt Q8TBX8, D138G/D197E/E133P/E135D/E153T/E196G/G136S/G139A/N195G/S132L/S134N); assay: ADP-Glo inhibition assay; format: biochemical; details: for IC50 / PI5P4Kγ+ inhibition: ADP-Glo; for IC50: mutant PI5P4Kγ+ construct, read-out: PI5P4Kγ+ pIC50 (converted); for PI5P4Kγ+ LE: ligand efficiency from PI5P4Kγ+ pIC50
T3 construct: GST (N, cleaved yes); made in house; host or cells: E. coli BL21(DE3), pGEX6P
T3 sequence (Q8TBX8 with tags, fused parts or gaps INS131LPN/S132D/E133S/S134Q/E135A/G136R/D138G/G139A/E153T/N195G/E196G/D197E): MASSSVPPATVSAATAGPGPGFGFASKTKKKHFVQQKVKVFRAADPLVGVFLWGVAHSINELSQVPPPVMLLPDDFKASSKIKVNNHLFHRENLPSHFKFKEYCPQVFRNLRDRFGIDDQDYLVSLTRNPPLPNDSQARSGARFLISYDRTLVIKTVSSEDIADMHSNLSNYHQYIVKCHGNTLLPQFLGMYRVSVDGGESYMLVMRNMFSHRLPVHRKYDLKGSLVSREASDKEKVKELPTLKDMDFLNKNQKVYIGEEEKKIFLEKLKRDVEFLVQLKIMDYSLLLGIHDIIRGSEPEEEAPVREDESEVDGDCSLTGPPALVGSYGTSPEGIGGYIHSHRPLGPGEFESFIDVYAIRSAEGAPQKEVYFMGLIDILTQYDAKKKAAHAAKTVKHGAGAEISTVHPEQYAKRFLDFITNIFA
Experimental: Recombinant mutant PI5P4Kγ+ was prepared essentially as described previously.[25] […] Cultures were induced with 0.4 mM IPTG and probe sonicated in the presence of protease inhibitors. The GST fusion protein of PI5P4Kγ+ was harvested by binding to glutathione sepharose beads (Cytiva) and cleaved in situ with 50U of PreScission protease (Cytiva) for 4 h at 4 °C. The cleaved protein was further purified by size-exclusion chromatography (AKTA Pure, Cytiva). The protein purity was confirmed by sodium dodecyl sulphate–polyacrylamide gel electrophoresis, and the concentration was determined by colorimetric assay (Bio-Rad).
Statistical analysis was performed using nonparametric testing in Prism 8 (GraphPad). Activity pIC50 values and in vivo binding pEC50 values were estimated using a 4-parameter fit (Dotmatics).

[4] = molecular target: T4, PI5P4Kβ-WT (Homo sapiens, UniProt P78356); assay: ADP-Glo inhibition assay; details: ADP-Glo
T4 sequence (P78356 1-416): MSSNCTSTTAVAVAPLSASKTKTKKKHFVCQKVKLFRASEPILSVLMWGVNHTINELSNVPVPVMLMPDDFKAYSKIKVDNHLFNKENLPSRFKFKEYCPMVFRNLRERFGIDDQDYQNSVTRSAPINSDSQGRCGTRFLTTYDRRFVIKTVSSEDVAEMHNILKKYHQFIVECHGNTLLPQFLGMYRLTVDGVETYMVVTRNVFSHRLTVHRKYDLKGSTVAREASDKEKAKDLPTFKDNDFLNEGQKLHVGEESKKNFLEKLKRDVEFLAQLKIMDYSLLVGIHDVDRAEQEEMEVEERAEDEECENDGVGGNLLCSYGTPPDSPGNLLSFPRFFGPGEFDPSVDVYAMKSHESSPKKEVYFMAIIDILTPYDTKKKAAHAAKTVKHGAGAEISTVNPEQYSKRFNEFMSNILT
Text: as §1

| SMILES | ΔTm at 63 µM [1] [°C] | PI5P4Kα pIC50 [2] | IC50 [3] | PI5P4Kγ+ LE [3] | PI5P4Kβ pIC50 [4] | PI5P4Kα inhibition [2] | PI5P4Kγ+ inhibition [3] | PI5P4Kβ inhibition [4] |
| --- | --- | --- | --- | --- | --- | --- | --- | --- |
| CC(C)c1ccccc1-c1nc(NC(C)c2ccccn2)c2ccccc2n1 (stereo not shown) [Compound 29] | 0.2 | <4.3 | 39.8 µM | 0.22 | <4.6 |  |  |  |
| CC(C)c1ccccc1-c1nc(NCc2ccccn2)c2ncccc2n1 [Compound 36] |  | <4.3 |  |  | <4.6 |  |  |  |
| CC(C)c1ccccc1-c1nc(NCc2ccccn2)c2[nH]ccc2n1 [Compound 42] |  | <4.3 |  |  | <4.6 |  |  |  |
| Cc1cnc(-c2ccccc2C(C)C)nc1NCc1ccc(-n2ccnn2)cc1 [ML323, reference compound] |  |  |  |  |  | inactive | inactive |  |
| CC(C)c1ccccc1-c1nc(NCc2ncccc2O)c2ccccc2n1 [Compound 31] | 7 |  | 0.631 µM |  |  |  |  |  |
| COc1cccc(-c2nc(NCc3ccccn3)c3ccccc3n2)c1 [Compound 20] | 5.1 | <4.3 | 7.94 µM | 0.27 |  |  |  |  |
| COc1ccccc1-c1nc(NCc2cccs2)c2ccccc2n1 [Compound 8] | 0.1 | <4.6 | > 50.1 µM |  | <4.6 |  |  |  |
| CC(C)c1ccccc1-c1nc(NCc2ccccn2)c2ccn(C)c2n1 [Compound 39] |  | <4.3 | > 50.1 µM |  |  |  | inactive |  |
| Fc1ccc(-c2nc(NCc3ccccn3)c3ccccc3n2)c(C(F)(F)F)c1 [Compound 16] |  | <4.3 | 1 µM | 0.29 |  |  |  |  |
| c1ccc(-c2ccccc2-c2nc(NCc3ccccn3)c3ccccc3n2)cc1 [Compound 25] | 4.4 | <4.3 | 10 µM | 0.24 |  |  |  |  |
| Clc1ccc(-c2nc(NCc3cccs3)c3ccccc3n2)cc1 [Compound 9] | -1.6 | <4.3 | > 50.1 µM |  |  |  |  |  |
| FC(F)(F)c1ccccc1-c1nc(NCc2cccnc2)c2ccccc2n1 [Compound 12] | 1.4 | <4.3 | > 50.1 µM |  |  |  |  |  |
| c1ccc(CNc2nc(-c3ccccc3C3CC3)nc3ccccc23)nc1 [Compound 23] |  | <4.3 | 2.51 µM | 0.29 |  |  |  |  |
| CC(C)c1ccccc1-c1nc(Nc2ccccn2)c2ccccc2n1 [Compound 28] |  | <4.3 | > 25.1 µM |  |  |  |  |  |
| CC(C)c1ccccc1-c1nc(NCc2ccccn2)c2cc(Br)ccc2n1 [Compound 32] |  | <4.3 | 0.2 µM | 0.33 |  |  |  |  |
| FC(F)(F)c1ccccc1-c1nc(NCCc2cccs2)c2ccccc2n1 [Compound 15] |  | <4.3 | > 50.1 µM |  |  |  |  |  |
| CC(C)c1ccccc1-c1nc(NCc2ccccn2)c2c(ccn2CC2CC2)n1 [Compound 41] | 4.9 | <4.3 | 0.316 µM and 2.51 µM | 0.31 |  |  |  |  |

| SMILES | ΔTm at 63 µM [1] [°C] | PI5P4Kα pIC50 [2] | IC50 [3] | PI5P4Kγ+ LE [3] | PI5P4Kβ pIC50 [4] | PI5P4Kα inhibition [2] | PI5P4Kγ+ inhibition [3] | PI5P4Kβ inhibition [4] |
| --- | --- | --- | --- | --- | --- | --- | --- | --- |
| CC(C)c1ccccc1-c1nc(NCc2ccccn2)c2cccnc2n1 [Compound 37] |  | <4.3 |  |  | <4.6 |  |  |  |
| N#Cc1ccccc1-c1nc(NCc2ccccn2)c2ccccc2n1 [Compound 26] | 2.9 | <4.3 | > 50.1 µM |  |  |  |  |  |
| FC(F)(F)c1ccccc1-c1nc(NCC2CCCCC2)c2ccccc2n1 [Compound 10] | -0.8 | <4.3 | > 50.1 µM |  | <4.6 |  |  |  |
| Fc1ccc(C(F)(F)F)c(-c2nc(NCc3ccccn3)c3ccccc3n2)c1 [Compound 17] |  | <4.3 | 3.98 µM | 0.26 |  |  |  |  |
| FC(F)(F)c1ccccc1-c1nc(NCc2cnccn2)c2ccccc2n1 [Compound 13] | 6.1 | <4.3 | 3.16 µM | 0.27 |  |  |  |  |
| Cc1cnc(-c2ccccc2C(C)C)nc1NCc1ccccn1 [Compound 34] |  | <4.7 |  |  | <4.6 | no detectable inhibition |  | no detectable inhibition |
| Cc1ccccc1-c1nc(NCc2cccs2)c2ccccc2n1 [Compound 7] | 2.7 | <4.3 | > 31.6 µM |  | <4.6 |  |  |  |
| FC(F)(F)c1ccccc1-c1nc(NCc2ccccc2)c2ccccc2n1 [Compound 11] | 4.6 | <4.3 | 6.31 µM | 0.26 | <4.6 |  |  |  |
| FC(F)(F)c1ccc(-c2nc(NCc3ccccn3)c3ccccc3n2)cc1 [Compound 19] | 1.7 | <4.3 | > 50.1 µM |  |  |  |  |  |
| COc1ccc(-c2nc(NCc3ccccn3)c3ccccc3n2)cc1 [Compound 21] | 5.1 | <4.3 | 7.94 µM | 0.27 |  |  |  |  |
| FC(F)(F)c1cccc(-c2nc(NCc3ccccn3)c3ccccc3n2)c1 [Compound 18] | 1.3 | <4.3 | > 50.1 µM |  |  |  |  |  |
| CC(C)c1ccccc1-c1nc(NCc2ccccn2)c2cc(N)ccc2n1 [Compound 33] |  | <4.3 | 0.316 µM | 0.32 |  |  |  |  |
| CCc1ccccc1-c1nc(NCc2ccccn2)c2ccccc2n1 [Compound 24] | 4.9 | <4.3 | 5.01 µM | 0.29 |  |  |  |  |
| CC(C)c1ccccc1-c1nc(NCc2ccc(C(F)(F)F)cn2)c2ccccc2n1 [Compound 30] |  | <4.3 | > 50.1 µM |  |  |  |  |  |
| CN(C)c1ccccc1-c1nc(NCc2ccccn2)c2ccccc2n1 [Compound 27] | 2.7 | <4.3 | > 50.1 µM |  |  |  |  |  |
| c1ccc(-c2nc(NCc3cccs3)c3ccccc3n2)cc1 [Compound 6] | -1.1 | <4.3 | > 50.1 µM |  | <4.6 |  |  |  |
